Laboratory results: publication PMC4987650, “Structural Investigation of Park’s Nucleotide on Bacterial Translocase MraY: Discovery of Unexpected MraY Inhibitors” (Scientific Reports, 2016)

Assays:
[1] = biological target: T1, MraYBS (Bacillus subtilis, UniProt Q03521); assay: Biolayer interferometry-based (BLI) binding assay
T1 construct: MBP; made in house
T1 sequence (Q03521 1-324): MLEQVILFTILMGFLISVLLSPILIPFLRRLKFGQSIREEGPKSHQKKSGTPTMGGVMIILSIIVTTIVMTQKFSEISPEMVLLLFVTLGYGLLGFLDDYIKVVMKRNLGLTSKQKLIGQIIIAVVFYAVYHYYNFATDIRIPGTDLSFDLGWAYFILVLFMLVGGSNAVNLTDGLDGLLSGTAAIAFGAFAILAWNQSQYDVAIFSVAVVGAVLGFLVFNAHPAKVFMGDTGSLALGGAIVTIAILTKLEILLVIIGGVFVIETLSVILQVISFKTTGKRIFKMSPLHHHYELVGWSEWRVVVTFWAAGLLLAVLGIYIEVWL
Procedure: MraYBS binding was measured in a biolayer interferometry-based binding assay on Octet Red96® instrument (ForteBio, Inc.). The biotinylation of MraYBS was performed with using EZ-Link® Sulfo-NHS-LC-LC-Biotin Kit (Thermo Fisher Scientific, Inc.). In general, MraYBS (1.7 mg/mL) in 50 μL reaction buffer (0.01 M HEPES pH 7.4, 0.15 M NaCl, 0.005% v/v Surfactant P20), was added by the sulfo-NHS-LC-LC-biotin reagent (1 mM, 1 μL). After incubating for 30 minutes at room temperature, the biotinylated-MraYBS was purified by a Zeba^TM Spin Desalting Columns, 7K MWCO (Thermo Fisher Scientific, Inc.), and the buffer was changed to the binding buffer (30 mM Tris, 10 mM MgCl2, 10 mM NaCl, 0.1 mM Tween-20, pH 8.0) during the purification. Comparing to the non-biotinylated-MraYBS, the biotinylated-MraYBS remains 62% activity measured by the HPLC-based MraY functional assay in 1 h reaction. The biotinylated MraYBS was then immobilized to Super Streptavidin (SSA) Octet tips (ForteBio, Inc.) for reaching a fixed signal of 3 nm. Before the assay starting, the MraYBS-labeled SSA sensors were pre-soaked in binding buffer for 30 min. The association of Park’s analogues with MraYBS were measured by incubating MraYBS-labeled SSA sensors in binding buffer containing various concentrations of samples in Octet Red system. The dissociation was monitored by moving the ligand biosenors from the analyte solution to binding buffer. The dissociation constants (KD) were obtained by nonlinear regression analysis using the specific binding model with the GraphPad Prism program (GraphPad Software, San Diego, CA).

[2] = biological target: T2, MraYBS T51A mutant (Bacillus subtilis, UniProt Q03521, T51A); assay: HPLC-based MraY functional assay, mutant MraY; assay type: biochemical; conditions: consumption of 6 in one-hour reaction
T2 construct: MBP; made in house
Procedure: (§1) The purified MraY from Bacillus subtilis was prepared as described in our previous reports. For 5 and 7–10, the reaction mixture containing MraYBS (10 μg/mL), C55P (200 μM) in 40 μL reaction buffer (30 mM Tris, 10 mM MgCl2, 10 mM NaCl, 0.1 mM Tween-20, 2.5% DMSO, pH 8.0) were pre-incubated at 37 °C for 15 min. The reactions were initiated by the addition of Park’s nucleotide analogues (10 μM) and incubated at 37 °C for 1 h. The reaction mixtures were added by uridine (0.01 mg/mL) as the internal standard and heated to 100 °C to stop the transferring reaction. The samples were analyzed by RP-C18 HPLC with gradient elution of 0.25 M NH4HCO3(aq)/15% MeOH in water (100:0 to 0:100) at a flow rate of 1 mL/min over 45 min, and the peaks of substrates were monitored at UV 260 nm. […] The reaction mixtures were heated to 100 °C to stop the transferring reaction, and samples were analyzed by an anion-exchange column (SAX1, Supelco Co., 5 μm, 4.6 × 250 mm) with a linear gradient elution of NH4OAc (20 mM to 1 M in MeOH) at a flow rate of 1.0 mL/min over 30 min. The fluorescent substrates were monitored with λex 466 nm/λem 535 nm by fluorescence detector. […]

[3] = biological target: T3, MraYBS T53A mutant (Bacillus subtilis, UniProt Q03521, T53A); assay: HPLC-based MraY functional assay, mutant MraY; assay type: biochemical; conditions: consumption of 6 in one-hour reaction
T3 construct: MBP; made in house
Procedure: as §1

[4] = biological target: T4, MraYBS K102A mutant (Bacillus subtilis, UniProt Q03521, K102A); assay: HPLC-based MraY functional assay, mutant MraY; assay type: biochemical; conditions: consumption of 6 in one-hour reaction
T4 construct: MBP; made in house
Procedure: as §1

[5] = biological target: T5, MraYBS K226A mutant (Bacillus subtilis, UniProt Q03521, K226A); assay: HPLC-based MraY functional assay, mutant MraY; assay type: biochemical; conditions: consumption of 6 in one-hour reaction
T5 construct: MBP; made in house
Procedure: as §1

[6] = biological target: T6, MraYBS F228A mutant (Bacillus subtilis, UniProt Q03521, F228A); assay: HPLC-based MraY functional assay, mutant MraY; assay type: biochemical; conditions: consumption of 6 in one-hour reaction
T6 construct: MBP; made in house
Procedure: as §1

[7] = biological target: T7, MraYBS Q271A mutant (Bacillus subtilis, UniProt Q03521, Q271A); assay: HPLC-based MraY functional assay, mutant MraY; assay type: biochemical; conditions: consumption of 6 in one-hour reaction
T7 construct: MBP; made in house
Procedure: as §1

[8] = biological target: T8, MraYBS R281A mutant (Bacillus subtilis, UniProt Q03521, R281A); assay: HPLC-based MraY functional assay, mutant MraY; assay type: biochemical; conditions: consumption of 6 in one-hour reaction
T8 construct: MBP; made in house
Procedure: as §1

[9] = biological target: T9, MraYBS W297A mutant (Bacillus subtilis, UniProt Q03521, W297A); assay: HPLC-based MraY functional assay, mutant MraY; assay type: biochemical; conditions: consumption of 6 in one-hour reaction
T9 construct: MBP; made in house
Procedure: as §1

What does the source list for `CC(=O)N[C@H]1[C@@H](OP(=O)(O)OP(=O)(O)OC[C@H]2O[C@@H](n3ccc(=O)[nH]c3=O)[C@H](O)[C@@H]2O)O[C@H](CO)[C@@H](O)[C@@H]1O[C@H](C)C(=O)N[C@@H](C)C(=O)N[C@H](CCC(=O)N[C@@H](CCCCNC(=O)CCCCCNc1ccc([N+](=O)[O-])c2nonc12)C(=O)N[C@H](C)C(=O)N[C@H](C)C(=O)O)C(=O)O` [Compound 6, NBD-Park’s nucleotide]?
Kd [1]: 127 µM; Relative activity [2]: 60%; Relative activity [3]: 18%; Relative activity [4]: 33%; Relative activity [5]: 100%; Relative activity [6]: 98%; Relative activity [7]: 16%; Relative activity [8]: 81%; Relative activity [9]: 17%
